Values of other authors, collected in patent publication US8512794B2, “Oleate ester phytosterol compositions” (Perlman Consulting, LLC, priority 2010, dated 2013).

System: humans

Row | SMILES | lowering of serum cholesterol (12-18 g per day in divided doses, males with atherosclerosis (Faquhar et al. 1956)) | decrease of plasma cholesterol level (9-18 grams per day, coarse powdered form)
1 | CC[C@H](CC[C@@H](C)[C@H]1CC[C@H]2[C@@H]3CC=C4C[C@@H](O)CC[C@]4(C)[C@H]3CC[C@]12C)C(C)C [beta sitosterol] | 15-20% | –
2 | CC[C@H](CC[C@@H](C)[C@H]1CC[C@H]2[C@@H]3CC=C4C[C@@H](O)CC[C@]4(C)[C@H]3CC[C@]12C)C(C)C [sitosterol] | – | approximately 15%
